We go through 22 molecules from patent US12473304B2, “Heterocyclic PAD4 inhibitors” (BRISTOL-MYERS SQUIBB COMPANY, priority 2020, dated 2025).

The target of this assay is human PAD4 (hPAD4) (Homo sapiens (Human), UniProt Q9UM07). Briefly: RFMS Human PAD4 Functional Assay 1. It is filed as biochemical. The conditions noted are these: RFMS assay 1; 5 nM hPAD4, 250 μM BAEE substrate, 50 μM calcium, 37° C. The method in brief: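 Recombinant hPAD4 (5 nM) was preincubated with compound (top 50 μM, 0.5% DMSO) for 30 min at 37 °C, then reacted with 250 μM BAEE for 90 min at 37 °C in pH 7.5 HEPES buffer with 50 μM calcium and 5 μM TPEN. Product was derivatized with phenyl glyoxal and quantified by RapidFire MS.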
human PAD4 (hPAD4), sequence (Q9UM07 whole entry): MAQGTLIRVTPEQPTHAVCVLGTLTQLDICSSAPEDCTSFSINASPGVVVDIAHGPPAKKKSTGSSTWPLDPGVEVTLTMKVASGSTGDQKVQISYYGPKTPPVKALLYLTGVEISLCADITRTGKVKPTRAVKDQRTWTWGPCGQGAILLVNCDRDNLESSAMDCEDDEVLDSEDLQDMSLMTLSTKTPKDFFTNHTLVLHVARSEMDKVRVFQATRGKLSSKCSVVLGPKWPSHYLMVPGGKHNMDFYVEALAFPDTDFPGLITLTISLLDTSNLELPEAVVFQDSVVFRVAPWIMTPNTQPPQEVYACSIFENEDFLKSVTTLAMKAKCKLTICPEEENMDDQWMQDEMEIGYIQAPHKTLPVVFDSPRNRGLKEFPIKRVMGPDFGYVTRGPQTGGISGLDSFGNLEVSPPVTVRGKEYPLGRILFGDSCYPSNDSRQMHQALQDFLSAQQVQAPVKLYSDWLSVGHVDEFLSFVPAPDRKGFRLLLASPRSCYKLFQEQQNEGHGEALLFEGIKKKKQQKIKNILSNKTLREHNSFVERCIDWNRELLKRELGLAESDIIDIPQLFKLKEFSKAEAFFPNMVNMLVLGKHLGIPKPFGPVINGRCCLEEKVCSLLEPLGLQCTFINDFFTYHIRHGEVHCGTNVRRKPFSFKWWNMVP
Consider `Cc1c(-c2cc3cccc(C4CCN(C(=O)[C@H]5CC[C@H](O)CC5)CC4)c3n2CC2CC2)nn2cc(C(=O)N3C[C@H](N)C[C@@H](F)C3)ccc12` [Example 451, ((3R,5R)-3-amino-5-fluoropiperidin-1-yl)(2-(1-(cyclopropylmethyl)-7-(1-((1r,4r)-4-hydroxycyclohexane-1-carbonyl)piperidin-4-yl)-1H-indol-2-yl)-3-methylpyrazolo[1,5-a]pyridin-6-yl)methanone], for which the IC50 was found to be 10 nM.

Consider `CC(=O)N1CCC(c2cccc3cc(-c4nn5cc(C(=O)N6C[C@H](N)C[C@@H](F)C6)ccc5c4C)n(CC4CC4)c23)CC1` [Example 452, 1-(4-(2-(6-((3R,5R)-3-amino-5-fluoropiperidine-1-carbonyl)-3-methylpyrazolo[1,5-a]pyridin-2-yl)-1-(cyclopropylmethyl)-1H-indol-7-yl)piperidin-1-yl)ethan-1-one], for which the IC50 worked out at 30 nM. Next, `COCC(=O)N1CCC(c2cccc3cc(-c4nn5cc(C(=O)N6CC7CCC6[C@@H]7N)ccc5c4C)n(CC4CC4)c23)CC1` (stereo partly drawn) [Example 453, 1-(4-(2-(6-((7R)-7-amino-2-azabicyclo[2.2.1]heptane-2-carbonyl)-3-methylpyrazolo[1,5-a]pyridin-2-yl)-1-(cyclopropylmethyl)-1H-indol-7-yl)piperidin-1-yl)-2-methoxyethan-1-one]: 10 nM. Then `CO[C@@H](C)C(=O)N1CCC(c2cccc3cc(-c4nn5cc(C(=O)N6CCC[C@@H](N)C6)ccc5c4C)n(CC4CC4)c23)CC1` [Example 454, (S)-1-(4-(2-(6-((R)-3-aminopiperidine-1-carbonyl)-3-methylpyrazolo[1,5-a]pyridin-2-yl)-1-(cyclopropylmethyl)-1H-indol-7-yl)piperidin-1-yl)-2-methoxypropan-1-one], with 550 nM; and `COCC(=O)N1CCC(c2cccc3cc(-c4nn5cc(C(=O)N6CCC[C@@H](N)C6)ccc5c4C)n(CC4CC4)c23)CC1` [Example 455, (R)-1-(4-(2-(6-(3-aminopiperidine-1-carbonyl)-3-methylpyrazolo[1,5-a]pyridin-2-yl)-1-(cyclopropylmethyl)-1H-indol-7-yl)piperidin-1-yl)-2-methoxyethan-1-one], with 270 nM.

Regarding `CO[C@@H](C)C(=O)N1CCC(c2cccc3cc(-c4nn5cc(C(=O)N6C[C@H](N)C[C@@H](F)C6)ccc5c4C)n(CC4CC4)c23)CC1` [Example 459, (S)-1-(4-(2-(6-((3R,5R)-3-amino-5-fluoropiperidine-1-carbonyl)-3-methylpyrazolo[1,5-a]pyridin-2-yl)-1-(cyclopropylmethyl)-1H-indol-7-yl)piperidin-1-yl)-2-methoxypropan-1-one], the IC50 came out at 140 nM. Then `CO[C@H](C)C(=O)N1CCC(c2cccc3cc(-c4nn5cc(C(=O)N6CCC[C@@H](N)C6)ccc5c4C)n(CC4CC4)c23)CC1` [Example 460, (R)-1-(4-(2-(6-((R)-3-aminopiperidine-1-carbonyl)-3-methylpyrazolo[1,5-a]pyridin-2-yl)-1-(cyclopropylmethyl)-1H-indol-7-yl)piperidin-1-yl)-2-methoxypropan-1-one], with 70 nM.

Consider `CO[C@H](C)C(=O)N1CCC(c2cccc3cc(-c4nn5cc(C(=O)N6C[C@H](N)C[C@@H](F)C6)ccc5c4C)n(CC4CC4)c23)CC1` [Example 461, (R)-1-(4-(2-(6-((3R,5R)-3-amino-5-fluoropiperidine-1-carbonyl)-3-methylpyrazolo[1,5-a]pyridin-2-yl)-1-(cyclopropylmethyl)-1H-indol-7-yl)piperidin-1-yl)-2-methoxypropan-1-one], for which the IC50 was 80 nM. As to `Cc1c(-c2cc3cccc(C4CCN(C(=O)c5cccs5)CC4)c3n2CC2CC2)nn2cc(C(=O)N3CCC[C@@H](N)C3)ccc12` [Example 464, (R)-(3-aminopiperidin-1-yl)(2-(1-(cyclopropylmethyl)-7-(1-(thiophene-2-carbonyl)piperidin-4-yl)-1H-indol-2-yl)-3-methylpyrazolo[1,5-a]pyridin-6-yl)methanone], the IC50 is 180 nM.

For the molecule `COC(=O)N1CCC(c2cccc3cc(-c4nn5cc(C(=O)N6CCC[C@@H](N)C6)ccc5c4C)n(CC4CC4)c23)CC1` [Example 468, Methyl (R)-4-(2-(6-(3-aminopiperidine-1-carbonyl)-3-methylpyrazolo[1,5-a]pyridin-2-yl)-1-(cyclopropylmethyl)-1H-indol-7-yl)piperidine-1-carboxylate], the IC50 is 100 nM. Then `COC(=O)N1CCC(c2cccc3cc(-c4nn5cc(C(=O)N6C[C@H](N)C[C@@H](F)C6)ccc5c4C)n(CC4CC4)c23)CC1` [Example 469, Methyl 4-(2-(6-((3R,5R)-3-amino-5-fluoropiperidine-1-carbonyl)-3-methylpyrazolo[1,5-a]pyridin-2-yl)-1-(cyclopropylmethyl)-1H-indol-7-yl)piperidine-1-carboxylate], with 180 nM; and `COC(=O)N1CCC(c2cccc3cc(-c4nn5cc(C(=O)N6CC7CCC6[C@@H]7N)ccc5c4C)n(CC4CC4)c23)CC1` (stereo partly drawn) [Example 470, Methyl 4-(2-(6-((7R)-7-amino-2-azabicyclo[2.2.1]heptane-2-carbonyl)-3-methylpyrazolo[1,5-a]pyridin-2-yl)-1-(cyclopropylmethyl)-1H-indol-7-yl)piperidine-1-carboxylate], with 10 nM. Next, `Cc1c(-c2cc3cccc(C4CCN(C(=O)[C@@H](C)O)CC4)c3n2CC2CC2)nn2cc(C(=O)N3CCC[C@@H](N)C3)ccc12` [Example 471, (R)-1-(4-(2-(6-((R)-3-aminopiperidine-1-carbonyl)-3-methylpyrazolo[1,5-a]pyridin-2-yl)-1-(cyclopropylmethyl)-1H-indol-7-yl)piperidin-1-yl)-2-hydroxypropan-1-one]: 90 nM; `Cc1c(-c2cc3cccc(C4CCN(C(=O)[C@@H](C)O)CC4)c3n2CC2CC2)nn2cc(C(=O)N3C[C@H](N)C[C@@H](F)C3)ccc12` [Example 472, (R)-1-(4-(2-(6-((3R,5R)-3-amino-5-fluoropiperidine-1-carbonyl)-3-methylpyrazolo[1,5-a]pyridin-2-yl)-1-(cyclopropylmethyl)-1H-indol-7-yl)piperidin-1-yl)-2-hydroxypropan-1-one]: 60 nM.

Turning to `Cc1c(-c2cc3cccc(C4CCN(C(=O)[C@@H](C)O)CC4)c3n2CC2CC2)nn2cc(C(=O)N3CC4CCC3[C@@H]4N)ccc12` (stereo partly drawn) [Example 473, (2R)-1-(4-(2-(6-((7R)-7-Amino-2-azabicyclo[2.2.1]heptane-2-carbonyl)-3-methylpyrazolo[1,5-a]pyridin-2-yl)-1-(cyclopropylmethyl)-1H-indol-7-yl)piperidin-1-yl)-2-hydroxypropan-1-one], the IC50 was 3 nM.

As for `Cc1c(-c2cc3cccc(C4CCN(C(=O)c5cccs5)CC4)c3n2CC2CC2)nn2cc(C(=O)N3C[C@H](N)C[C@@H](F)C3)ccc12` [Example 474, ((3R,5R)-3-Amino-5-fluoropiperidin-1-yl)(2-(1-(cyclopropylmethyl)-7-(1-(thiophene-2-carbonyl)piperidin-4-yl)-1H-indol-2-yl)-3-methylpyrazolo[1,5-a]pyridin-6-yl)methanone], the IC50 amounted to 70 nM. Then `Cc1c(-c2cc3cccc(C4CCN(C(=O)c5cccs5)CC4)c3n2CC2CC2)nn2cc(C(=O)N3CC4CCC3[C@@H]4N)ccc12` (stereo partly drawn) [Example 475, (4-(2-(6-((7R)-7-Amino-2-azabicyclo[2.2.1]heptane-2-carbonyl)-3-methylpyrazolo[1,5-a]pyridin-2-yl)-1-(cyclopropylmethyl)-1H-indol-7-yl)piperidin-1-yl)(thiophen-2-yl)methanone], with 20 nM; and `CC(=O)N1CCC(c2cccc3cc(-c4nn5cc(C(=O)N6CC7CCC6[C@@H]7N)ccc5c4C)n(CC4CC4)c23)CC1` (stereo partly drawn) [Example 477, 1-(4-(2-(6-((7R)-7-Amino-2-azabicyclo[2.2.1]heptane-2-carbonyl)-3-methylpyrazolo[1,5-a]pyridin-2-yl)-1-(cyclopropylmethyl)-1H-indol-7-yl)piperidin-1-yl)ethan-1-one], with 20 nM.

As for `COCC(=O)N1CCC(c2cccc3cc(-c4nn5cc(C(=O)N6C[C@H](N)C[C@@H](F)C6)ccc5c4C)n(CC4CC4)c23)CC1` [Example 478, 1-(4-(2-(6-((3R,5R)-3-Amino-5-fluoropiperidine-1-carbonyl)-3-methylpyrazolo[1,5-a]pyridin-2-yl)-1-(cyclopropylmethyl)-1H-indol-7-yl)piperidin-1-yl)-2-methoxyethan-1-one], the IC50 is 130 nM. Next, `CC(=O)N1CCC(c2cccc3cc(-c4nn5cc(C(=O)N6CCC[C@@H](N)C6)ccc5c4C)n(CC4CC4)c23)CC1` [Example 479, (R)-1-(4-(2-(6-(3-Aminopiperidine-1-carbonyl)-3-methylpyrazolo[1,5-a]pyridin-2-yl)-1-(cyclopropylmethyl)-1H-indol-7-yl)piperidin-1-yl)ethan-1-one]: 390 nM; `COCC(=O)N1CCC(c2cc(F)cc3cc(-c4nn5cc(C(=O)N6CCC[C@@H](N)C6)cc(OC)c5c4C)n(CC4CC4)c23)CC1` [Example 480, (R)-1-(4-(2-(6-(3-aminopiperidine-1-carbonyl)-4-methoxy-3-methylpyrazolo[1,5-a]pyridin-2-yl)-1-(cyclopropylmethyl)-5-fluoro-1H-indol-7-yl)piperidin-1-yl)-2-Methoxyethan-1-one]: 140 nM; `COCC(=O)N1CCC(c2cc(F)cc3cc(-c4nn5cc(C(=O)N6C[C@H](N)C[C@@H](F)C6)cc(OC)c5c4C)n(CC4CC4)c23)CC1` [Example 481, 1-(4-(2-(6-((3R,5R)-3-Amino-5-fluoropiperidine-1-carbonyl)-4-methoxy-3-methylpyrazolo[1,5-a]pyridin-2-yl)-1-(cyclopropylmethyl)-5-fluoro-1H-indol-7-yl)piperidin-1-yl)-2-methoxyethan-1-one]: 120 nM.

As a reminder, the IC50 is the concentration needed to halve the response being measured.
